Columns and labels:
human skeletal myotubes = test: Quantitative lipidomic analyses and TAG biosynthesis pathway modeling; type: cell-based; conditions: oleate-loaded myotubes
Description: Quantitative lipidomic analyses was performed on human skeletal myotubes exposed to bovine albumin serum (BSA) or 100 μM oleate in the presence of DMSO vehicle (white bars) or 10 μM SBI-477 (black bars) for 24 hours.
Primary human myotubes were treated with BSA or 100 μM oleate with 10 μM SBI-477 or a vehicle control for 24 hours. The cells were added to […] in an Eppendorf tube and homogenized for 1 minute using a disposable soft tissue homogenizer. A 25 μL aliquot was used to determine the protein content (BCA protein assay kit, Thermo Scientific, Rockford, Ill.). The remaining homogenate was accurately transferred into a disposable glass culture test tube, and a mixture of lipid internal standards was added prior to lipid extraction for quantification of all reported lipid species. Lipid extraction was performed by using a modified Bligh and Dyer procedure as described previously (Wang and Han, 2014). Each lipid extract was resuspended into a volume of 500 μL of chloroform/methanol (1:1, v/v) per mg of protein and flushed with nitrogen, capped, and stored at −20° C. for lipid analysis. For ESI direct infusion analysis, lipid extract was further diluted to a final concentration of ˜500 fmol/μL, and the mass spectrometric analysis was performed on a QqQ mass spectrometer (Thermo TSQ VANTAGE, San Jose, Calif.) equipped with an automated nanospray device (TriVersa NanoMate, Advion Bioscience Ltd., Ithaca, N.Y.).
Intracellular TAG can be formed through reacylation of DAG species generated from several pathways including a de novo glycerolphosphate biosynthetic pathway that involves dephosphorylation of phosphatidic acid (DAGPA), reacylation of monoacylglycerol (DAGMAG), and to a lesser extent, hydrolysis of phosphatidyl inositol (DAGPI). […] This approach uses the individual TAG ion profile, as determined by mass spectrometry, to predict the relative contribution of each pathway to the overall cellular TAG pool. […]

MGAT1/2/3 = test: Direct inhibition of MGAT1/2/3 activity; type: biochemical; conditions: data not shown
Akt = test: Western blot of Akt phosphorylation; type: cell-based, human; conditions: 24 hours
Description: FIGS. 3A, B, C, E and F show SBI-477 stimulation of glucose uptake and activates insulin signaling in the absence of insulin. Human skeletal myotubes were incubated with SBI-477 at the indicated concentration for 24 hours and then treated with or without insulin (100 nM) for 30 minutes. Glucose ([3H]-2-deoxyglucose, 2-DG) uptake (FIG. 3A) and glycogen synthesis rates (FIGS. 3B and 3C) were measured (n=5) as described in Methods. *p<0.05 vs. Vehicle, no insulin, †p<0.05 vs. Vehicle/insulin by two-way ANOVA with Tukey's post hoc test. (FIG. 3E) Western blot analysis of human myotubes treated with SBI-477 for 24 hours was performed to determine the effect on steps of the insulin signaling pathway using specific Akt and IRS-1 phosphorylation sites as endpoints. Insulin treatment (100 nM) for 30 minutes was used as positive control. (FIG. 3F) Quantitation of the western blot data in […] is shown (n=5). *p<0.05 or **p<0.01 vs. Vehicle by one-way ANOVA with Bonferroni post hoc test. The data represent mean±SD.
Cells were lysed in the RIPA buffer containing 1% NP-40, 5 mM Na4P2O7, 1 mM EDTA, 20 mM NaF, 2 mM Na3VO4, 1× cOmplete™ protease inhibitor (Roche) and 1 mM phenylmethylsulfonyl fluoride. […] Protein quantification was performed using FluorChemQ (Alpha Innotech) and normalized to […]-actin or total protein where indicated.

SMILES: COc1ccc(-c2csc(NC(=O)c3ccc(OCC(=O)N4CCOCC4)c(OC)c3)n2)cc1 [Cpd. 7, 3-methoxy-N-(4-(4-methoxyphenyl)thiazol-2-yl)-4-(2-morpholino-2-oxoethoxy)benzamide]
- Levels of ceramide and total sphingomyelin (human skeletal myotubes): not significantly altered
- DAG species levels (human skeletal myotubes; 24 hour exposure): reduced
- TAG species levels (human skeletal myotubes; 24 hour exposure): reducing all TAG species measured
- Direct inhibition of MGAT1/2/3 activity (MGAT1/2/3): not found that SBI-477 directly inhibits
- Phosphorylation of Akt (Akt): also increased

Reference: patent US11028061B2, “Modulators of myocyte lipid accumulation and insulin resistance and methods of use thereof” (Sanford Burnham Prebys Medical Discovery Institute, priority 2015, dated 2021)
